From the kinase profiling compilation of Christmann-Franck et al. (2016)

Columns and labels:
Assay in all cases: KINOMEscan competition binding
Conditions in all cases: compound 10.0 µM
[1] = target: CIT (human) (UniProt O14578)
[2] = target: CDK4 CCND3 (human) (UniProt P11802+P30281)
[3] = target: MST1R (human) (UniProt Q04912)
[4] = target: ULK2 (human) (UniProt Q8IYT8)
[5] = target: PIP4K2B (human) (UniProt P78356)
[6] = target: BUB1 (human) (UniProt O43683)
[7] = target: MAP2K6 (human) (UniProt P52564)
[8] = target: YES1 (human) (UniProt P07947)
[9] = target: MAP3K12 (human) (UniProt Q12852)
[10] = target: TSSK1B (human) (UniProt Q9BXA7)
[11] = target: PHKG2 (human) (UniProt P15735)
Chain of PHKG2 (human) (P15735 whole entry, looked up): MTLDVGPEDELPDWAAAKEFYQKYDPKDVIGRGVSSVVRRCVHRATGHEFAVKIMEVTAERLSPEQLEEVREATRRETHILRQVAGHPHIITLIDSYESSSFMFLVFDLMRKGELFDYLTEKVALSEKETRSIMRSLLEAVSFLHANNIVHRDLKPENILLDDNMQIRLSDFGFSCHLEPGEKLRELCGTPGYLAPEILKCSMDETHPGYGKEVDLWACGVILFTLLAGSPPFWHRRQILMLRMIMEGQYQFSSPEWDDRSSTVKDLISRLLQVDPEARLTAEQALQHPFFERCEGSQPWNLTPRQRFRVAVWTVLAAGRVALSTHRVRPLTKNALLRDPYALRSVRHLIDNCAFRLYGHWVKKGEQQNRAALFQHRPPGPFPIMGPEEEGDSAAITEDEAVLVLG

[12] = target: RPS6KA4 KD2 (human) (UniProt O75676)
[13] = target: WNK1 (human) (UniProt Q9H4A3)
[14] = target: AURKA (human) (UniProt O14965)
[15] = target: RPS6KA6 KD2 (human) (UniProt Q9UK32)
Chain of RPS6KA6 KD2 (human) (Q9UK32 whole entry, looked up): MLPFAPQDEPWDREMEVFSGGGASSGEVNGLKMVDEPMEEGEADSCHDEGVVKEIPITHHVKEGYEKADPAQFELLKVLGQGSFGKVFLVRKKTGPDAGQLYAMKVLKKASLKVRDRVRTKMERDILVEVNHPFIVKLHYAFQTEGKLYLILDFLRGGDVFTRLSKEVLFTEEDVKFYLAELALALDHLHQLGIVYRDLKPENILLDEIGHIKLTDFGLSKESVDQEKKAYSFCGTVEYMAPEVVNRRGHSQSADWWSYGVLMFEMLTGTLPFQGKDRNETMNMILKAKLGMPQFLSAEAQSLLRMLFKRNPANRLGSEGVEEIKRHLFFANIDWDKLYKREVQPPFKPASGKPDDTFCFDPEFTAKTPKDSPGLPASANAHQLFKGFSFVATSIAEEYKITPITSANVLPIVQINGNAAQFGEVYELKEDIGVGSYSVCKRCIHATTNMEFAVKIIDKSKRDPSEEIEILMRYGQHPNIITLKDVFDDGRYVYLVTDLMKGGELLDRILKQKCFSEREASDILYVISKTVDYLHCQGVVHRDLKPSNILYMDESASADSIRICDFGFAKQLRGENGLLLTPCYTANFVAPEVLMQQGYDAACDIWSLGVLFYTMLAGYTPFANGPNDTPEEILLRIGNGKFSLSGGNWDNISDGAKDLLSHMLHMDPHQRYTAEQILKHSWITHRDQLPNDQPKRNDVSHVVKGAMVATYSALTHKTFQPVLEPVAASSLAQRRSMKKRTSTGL

[16] = target: SGK1 (human) (UniProt O00141)
[17] = test system: CPK1 (P.falciparum)
[18] = target: TEC (human) (UniProt P42680)
Chain of TEC (human) (P42680 whole entry, looked up): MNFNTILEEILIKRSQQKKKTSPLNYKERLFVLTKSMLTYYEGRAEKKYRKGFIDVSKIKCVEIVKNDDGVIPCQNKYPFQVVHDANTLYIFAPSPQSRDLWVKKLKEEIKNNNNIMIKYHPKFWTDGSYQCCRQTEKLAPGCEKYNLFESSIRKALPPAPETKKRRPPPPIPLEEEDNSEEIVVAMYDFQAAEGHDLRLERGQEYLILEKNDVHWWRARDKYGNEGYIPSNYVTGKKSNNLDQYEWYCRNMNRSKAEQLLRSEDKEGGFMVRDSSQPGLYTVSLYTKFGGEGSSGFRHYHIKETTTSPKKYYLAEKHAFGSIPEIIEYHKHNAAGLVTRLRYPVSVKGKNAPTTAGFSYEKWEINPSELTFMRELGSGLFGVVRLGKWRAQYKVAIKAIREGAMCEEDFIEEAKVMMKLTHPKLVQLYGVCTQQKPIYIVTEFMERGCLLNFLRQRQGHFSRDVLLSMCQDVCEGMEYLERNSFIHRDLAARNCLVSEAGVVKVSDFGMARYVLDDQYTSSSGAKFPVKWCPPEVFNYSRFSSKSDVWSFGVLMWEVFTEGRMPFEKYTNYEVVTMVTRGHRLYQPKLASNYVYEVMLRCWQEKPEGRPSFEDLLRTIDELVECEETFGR

[19] = target: TYK2 JH1 catalytic (human) (UniProt P29597)
[20] = target: MKNK1 (human) (UniProt Q9BUB5)
Chain of MKNK1 (human) (Q9BUB5 whole entry, looked up): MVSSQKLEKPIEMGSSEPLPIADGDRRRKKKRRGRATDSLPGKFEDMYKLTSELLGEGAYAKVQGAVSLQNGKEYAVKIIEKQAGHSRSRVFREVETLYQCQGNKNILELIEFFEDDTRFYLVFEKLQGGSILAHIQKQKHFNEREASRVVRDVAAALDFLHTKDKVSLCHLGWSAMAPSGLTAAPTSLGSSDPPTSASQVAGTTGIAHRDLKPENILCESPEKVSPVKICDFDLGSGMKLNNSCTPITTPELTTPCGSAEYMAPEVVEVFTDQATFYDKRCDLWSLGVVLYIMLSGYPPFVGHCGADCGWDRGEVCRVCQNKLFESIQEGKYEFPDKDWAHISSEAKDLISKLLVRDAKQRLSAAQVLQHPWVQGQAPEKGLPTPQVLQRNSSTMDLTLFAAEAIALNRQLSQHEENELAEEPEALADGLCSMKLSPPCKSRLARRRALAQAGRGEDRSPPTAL

[21] = target: CAMK2G (human) (UniProt Q13555)
[22] = target: RPS6KA2 KD2 (human) (UniProt Q15349)
[23] = target: LATS1 (human) (UniProt O95835)
[24] = target: ACVRL1 (human) (UniProt P37023)
[25] = target: CSNK1A1 (human) (UniProt P48729)
Chain of CSNK1A1 (human) (P48729 whole entry, looked up): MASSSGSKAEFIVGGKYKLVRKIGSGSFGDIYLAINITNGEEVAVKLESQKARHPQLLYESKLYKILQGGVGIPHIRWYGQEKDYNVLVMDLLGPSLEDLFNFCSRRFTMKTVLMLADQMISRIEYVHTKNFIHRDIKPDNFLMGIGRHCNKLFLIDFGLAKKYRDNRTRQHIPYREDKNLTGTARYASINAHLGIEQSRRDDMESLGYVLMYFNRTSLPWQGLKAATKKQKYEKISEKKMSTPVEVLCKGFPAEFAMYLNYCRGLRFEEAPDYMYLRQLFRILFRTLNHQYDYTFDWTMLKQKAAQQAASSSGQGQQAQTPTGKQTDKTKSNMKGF

[26] = target: RIOK1 (human) (UniProt Q9BRS2)
[27] = target: SLK (human) (UniProt Q9H2G2)
[28] = target: PTK2B (human) (UniProt Q14289)
[29] = test system: EGFR (human), P00533 [T790M]
[30] = target: RPS6KA6 KD1 (human) (UniProt Q9UK32)
Chain of RPS6KA6 KD1 (human) (Q9UK32 whole entry, looked up): as the sequence (Q9UK32 whole entry, looked up) above

[31] = target: RPS6KA3 KD2 (human) (UniProt P51812)
[32] = target: EIF2AK2 (human) (UniProt P19525)
[33] = target: CDK2 (human) (UniProt P24941)
[34] = target: MAPK6 (human) (UniProt Q16659)
[35] = target: CDK3 (human) (UniProt Q00526)
[36] = target: NEK9 (human) (UniProt Q8TD19)
[37] = target: MAP2K5 (human) (UniProt Q13163)
Chain of MAP2K5 (human) (Q13163 whole entry, looked up): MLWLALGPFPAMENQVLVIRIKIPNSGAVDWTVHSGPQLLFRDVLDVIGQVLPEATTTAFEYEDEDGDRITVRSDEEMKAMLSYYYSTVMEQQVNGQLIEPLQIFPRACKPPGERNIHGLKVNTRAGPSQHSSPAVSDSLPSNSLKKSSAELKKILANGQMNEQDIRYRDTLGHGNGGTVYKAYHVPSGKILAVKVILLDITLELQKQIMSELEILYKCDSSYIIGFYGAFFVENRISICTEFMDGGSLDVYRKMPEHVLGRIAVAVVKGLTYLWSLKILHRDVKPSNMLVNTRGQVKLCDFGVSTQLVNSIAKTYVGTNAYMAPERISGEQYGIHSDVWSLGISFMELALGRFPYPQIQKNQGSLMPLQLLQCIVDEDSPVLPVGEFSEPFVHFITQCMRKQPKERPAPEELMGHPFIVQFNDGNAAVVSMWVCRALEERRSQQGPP

[38] = target: PHKG1 (human) (UniProt Q16816)
[39] = test system: ABL1 (human), P00519 [H396P]
[40] = target: ABL1 (human) (UniProt P00519)

Chain of MST1R (human) (Q04912 whole entry, looked up): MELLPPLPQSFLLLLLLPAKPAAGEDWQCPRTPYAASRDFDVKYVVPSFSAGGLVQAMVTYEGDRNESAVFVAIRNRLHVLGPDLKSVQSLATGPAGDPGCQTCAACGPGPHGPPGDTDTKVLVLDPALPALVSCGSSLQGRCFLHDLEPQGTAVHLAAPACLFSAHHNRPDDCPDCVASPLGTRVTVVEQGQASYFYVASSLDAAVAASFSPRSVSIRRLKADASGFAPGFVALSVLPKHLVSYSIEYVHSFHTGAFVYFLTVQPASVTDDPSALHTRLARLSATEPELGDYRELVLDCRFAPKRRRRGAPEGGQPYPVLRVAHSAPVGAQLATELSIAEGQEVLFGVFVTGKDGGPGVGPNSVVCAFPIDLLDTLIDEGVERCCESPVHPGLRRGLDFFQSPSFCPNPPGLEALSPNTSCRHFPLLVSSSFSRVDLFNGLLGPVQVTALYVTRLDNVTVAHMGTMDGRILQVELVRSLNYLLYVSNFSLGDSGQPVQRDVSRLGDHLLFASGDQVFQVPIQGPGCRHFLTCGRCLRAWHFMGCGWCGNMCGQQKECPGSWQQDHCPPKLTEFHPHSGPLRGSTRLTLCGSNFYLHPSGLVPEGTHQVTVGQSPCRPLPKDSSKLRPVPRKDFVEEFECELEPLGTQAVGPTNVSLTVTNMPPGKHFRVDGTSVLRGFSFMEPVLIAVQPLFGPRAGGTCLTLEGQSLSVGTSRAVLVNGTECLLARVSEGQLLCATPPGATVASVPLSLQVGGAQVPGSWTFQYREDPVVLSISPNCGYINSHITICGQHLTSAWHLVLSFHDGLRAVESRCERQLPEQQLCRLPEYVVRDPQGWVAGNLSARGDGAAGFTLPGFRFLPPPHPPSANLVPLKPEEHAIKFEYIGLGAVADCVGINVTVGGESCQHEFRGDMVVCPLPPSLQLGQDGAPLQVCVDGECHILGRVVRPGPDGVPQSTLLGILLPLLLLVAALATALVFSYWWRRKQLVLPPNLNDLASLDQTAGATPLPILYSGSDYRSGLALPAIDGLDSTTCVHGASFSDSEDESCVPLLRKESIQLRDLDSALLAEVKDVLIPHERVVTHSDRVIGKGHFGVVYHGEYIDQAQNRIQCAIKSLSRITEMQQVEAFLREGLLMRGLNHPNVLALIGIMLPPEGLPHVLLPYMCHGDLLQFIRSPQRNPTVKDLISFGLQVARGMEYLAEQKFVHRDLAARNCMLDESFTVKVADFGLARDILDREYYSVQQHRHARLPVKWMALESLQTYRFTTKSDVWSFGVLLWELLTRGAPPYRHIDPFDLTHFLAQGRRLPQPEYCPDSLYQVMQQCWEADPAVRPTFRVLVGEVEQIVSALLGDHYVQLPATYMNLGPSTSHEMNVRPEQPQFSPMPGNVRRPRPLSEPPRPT
Chain of PIP4K2B (human) (P78356 whole entry, looked up): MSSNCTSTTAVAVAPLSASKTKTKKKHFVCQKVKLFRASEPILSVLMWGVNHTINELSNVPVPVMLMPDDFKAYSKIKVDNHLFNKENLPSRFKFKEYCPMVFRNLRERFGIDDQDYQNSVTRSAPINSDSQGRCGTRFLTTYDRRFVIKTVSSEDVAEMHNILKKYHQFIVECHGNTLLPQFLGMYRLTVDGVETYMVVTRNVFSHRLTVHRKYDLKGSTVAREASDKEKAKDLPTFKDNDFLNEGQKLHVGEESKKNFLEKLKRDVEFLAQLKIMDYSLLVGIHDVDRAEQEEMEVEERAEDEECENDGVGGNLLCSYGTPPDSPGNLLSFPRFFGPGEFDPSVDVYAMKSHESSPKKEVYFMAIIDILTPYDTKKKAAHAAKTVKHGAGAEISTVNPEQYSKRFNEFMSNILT

Structure (SMILES) | kinase still bound, per cent of control [1] | kinase still bound, per cent of control [2] | kinase still bound, per cent of control [3] | kinase still bound, per cent of control [4] | kinase still bound, per cent of control [5] | kinase still bound, per cent of control [6] | kinase still bound, per cent of control [7] | kinase still bound, per cent of control [8] | kinase still bound, per cent of control [9] | kinase still bound, per cent of control [10] | kinase still bound, per cent of control [11] | kinase still bound, per cent of control [12] | kinase still bound, per cent of control [13] | kinase still bound, per cent of control [14] | kinase still bound, per cent of control [15] | kinase still bound, per cent of control [16] | kinase still bound, per cent of control [17] | kinase still bound, per cent of control [18] | kinase still bound, per cent of control [19] | kinase still bound, per cent of control [20] | other results
O=C1NC(=O)/C(=C/c2ccc3nccc(-c4ccncc4)c3c2)S1 | 4.4% | 100% | 100% | 65% | 4% | 12% | 69% | 84% | 96% | 2.2% | 6% | 63% | 57% | 69% | 5.2% | 43% | 11% | 73% | 38% | 84% | kinase still bound, per cent of control [21]: 28%; kinase still bound, per cent of control [22]: 12%; kinase still bound, per cent of control [23]: 80%; kinase still bound, per cent of control [24]: 85%; kinase still bound, per cent of control [25]: 24%; kinase still bound, per cent of control [26]: 1%; kinase still bound, per cent of control [27]: 0.3%; kinase still bound, per cent of control [28]: 86%; kinase still bound, per cent of control [29]: 76%; kinase still bound, per cent of control [30]: 45%; kinase still bound, per cent of control [31]: 70%; kinase still bound, per cent of control [32]: 20%; kinase still bound, per cent of control [33]: 76%; kinase still bound, per cent of control [34]: 100%; kinase still bound, per cent of control [35]: 87%; kinase still bound, per cent of control [36]: 95%; kinase still bound, per cent of control [37]: 46%; kinase still bound, per cent of control [38]: 31%
N#CCNC(=O)c1ccc(-c2ccnc(Nc3ccc(N4CCOCC4)cc3)n2)cc1 | 0.35% | 13% | 100% | 60% | 89% | 3.5% | 77% | 91% | 100% | 100% | 23% | 100% | 75% | 12% | 52% | 2.8% | 100% | 100% | 0.25% | 84% | kinase still bound, per cent of control [39]: 65%; kinase still bound, per cent of control [40]: 54%; kinase still bound, per cent of control [21]: 36%; kinase still bound, per cent of control [22]: 71%; kinase still bound, per cent of control [23]: 100%; kinase still bound, per cent of control [24]: 47%; kinase still bound, per cent of control [25]: 81%; kinase still bound, per cent of control [26]: 1%; kinase still bound, per cent of control [27]: 100%; kinase still bound, per cent of control [28]: 86%; kinase still bound, per cent of control [30]: 78%; kinase still bound, per cent of control [31]: 100%; kinase still bound, per cent of control [32]: 47%; kinase still bound, per cent of control [33]: 55%; kinase still bound, per cent of control [34]: 71%; kinase still bound, per cent of control [35]: 100%; kinase still bound, per cent of control [36]: 9.4%; kinase still bound, per cent of control [37]: 100%; kinase still bound, per cent of control [38]: 78%
